The text below walks through data of patent US10913738B2 (BRISTOL-MYERS SQUIBB COMPANY, priority 2017, dated 2021).

Like-named read-outs stand apart in the source and are kept apart here. Bounds are passed on as bounds.

Assay [1] deals with T1, His-GST-TVMV-hRIPK1(1-324) (Homo sapiens, UniProt Q13546).
T1 construct: The coding region of human RIPK1(1-324) flanked by NdeI site at 5′ end; made in house; host or cells: Spodoptera frugiperda (Sf9) insect cells, baculovirus
T1 sequence (Q13546 1-324): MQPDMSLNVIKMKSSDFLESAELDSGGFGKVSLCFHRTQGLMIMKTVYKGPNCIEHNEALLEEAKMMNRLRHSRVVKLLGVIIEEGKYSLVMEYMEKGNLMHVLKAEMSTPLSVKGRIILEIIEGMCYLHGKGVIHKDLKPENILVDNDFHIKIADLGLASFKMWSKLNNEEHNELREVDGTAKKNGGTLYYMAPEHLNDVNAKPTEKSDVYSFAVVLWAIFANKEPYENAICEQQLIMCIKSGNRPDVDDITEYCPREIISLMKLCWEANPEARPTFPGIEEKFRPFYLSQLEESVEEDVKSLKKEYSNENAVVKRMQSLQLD
Put plainly: RIPK1 HTRF Binding Assay.

Assay [2] concerns MLKL phosphorylation in HT29-L23 human colorectal adenocarcinoma cells. Put plainly: MLKL Phosphorylation High-Content Assay. It counts as cell-based. Particulars: Homo sapiens. Summed up:
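Cells incubated six hours at 37° C., then phospho-MLKL (S358) immunostained overnight at 4° C. and imaged by high-content microscopy. Phosphorylation quantified as mean circ-ring average intensity ratio; IC50 and Ymax from 4-parameter logistic fits.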

[3] abbreviates: x marks IC50 class <20 nM, read-out: RIPK1 HTRF binding <20 nM.
The mark [4] stands for this setting: x marks IC50 class 20-200 nM, read-out: pMLKL cell activity 20-200 nM.
[5] abbreviates: x marks IC50 class 20-200 nM, read-out: RIPK1 HTRF binding 20-200 nM.
[6] abbreviates: x marks IC50 class <20 nM, read-out: pMLKL cell activity <20 nM.
Setting [7] is: x marks IC50 class >200 nM, read-out: pMLKL cell activity >200 nM.

On to `COc1ncc(-c2ccn3nc(N)nc3c2)cc1C(=O)NCc1ccc(F)cc1OC1CCOCC1` [Example 80, 5-{2-Amino-[1,2,4]triazolo[1,5-a]pyridin-7-yl}-N-{[4-fluoro-2-(oxan-4-yloxy)phenyl]methyl}-2-methoxypyridine-3-carboxamide], for which the values for the IC50 in assay [1] (setting [3]) and in assay [2] (setting [4]) were < 20 nM and 20 to 200 nM, respectively.
With `COc1ncc(-c2ccn3nc(N)nc3c2)cc1C(=O)N1CCCC(Cc2cccc(F)c2)C1` (stereo not shown) [Example 118, 7-(5-{3-[(3-fluorophenyl)methyl]piperidine-1-carbonyl}-6-methoxypyridin-3-yl)-[1,2,4]triazolo[1,5-a]pyridin-2-amine], the IC50 in assay [1] (setting [5]) and in assay [2] (setting [4]) was 20 to 200 nM in each case.
For the compound `Cc1nc(C)c(-c2ccn3nc(N)nc3c2)cc1C(=O)NCc1c(F)cc(F)cc1OCC1CCCC1` [Example 177, 5-{2-amino-[1,2,4]triazolo[1,5-a]pyridin-7-yl}-N-{[2-(cyclopentylmethoxy)-4,6-difluorophenyl]methyl}-2,6-dimethylpyridine-3-carboxamide], the results for the IC50 in assay [1] (setting [3]) and in assay [2] (setting [4]) were < 20 nM and 20 to 200 nM, respectively.
Take `COc1nc(C)c(-c2ccn3nc(N)nc3c2)cc1C(=O)NCc1cc(C(F)(F)F)cc(Cl)c1F` [Example 336, 5-(2-amino-[1,2,4]triazolo[1,5-a]pyridin-7-yl)-N-(3-chloro-2-fluoro-5-(trifluoromethyl)benzyl)-2-methoxy-6-methylnicotinamide]: the IC50 in assay [1] (setting [5]) and in assay [2] (setting [4]) was 20 to 200 nM in each case.
`Cc1cnc(-c2ccn3nc(N)nc3c2)cc1C(=O)NCCC(C)c1ccccc1` (stereo not shown) [Example 393, 2-(2-amino-[1,2,4]triazolo[1,5-a]pyridin-7-yl)-5-methyl-N-(3-phenylbutyl)isonicotinamide]: the IC50 is < 20 nM in assay [1] (setting [3]) and 20 to 200 nM in assay [2] (setting [4]).
As for `COc1ncc(-c2ccn3nc(N)nc3c2)cc1C(=O)N[C@H]1CCN(Cc2ccccc2)C1` [Example 159, 5-{2-amino-[1,2,4]triazolo[1,5-a]pyridin-7-yl}-N-[(3S)-1-benzylpyrrolidin-3-yl]-2-methoxypyridine-3-carboxamide], the IC50 in assay [1] (x marks IC50 class >200 nM, read-out: RIPK1 HTRF binding >200 nM) was > 200 nM; in assay [2] (setting [4]), 20 to 200 nM.
With `COc1nc(C)c(-c2ccn3nc(N)nc3c2)cc1C(=O)NCc1ccccc1OCC(C)C` [Example 327, 5-(2-amino-[1,2,4]triazolo[1,5-a]pyridin-7-yl)-N-(2-isobutoxybenzyl)-2-methoxy-6-methylnicotinamide], the IC50 in assay [1] (setting [3]) and in assay [2] (setting [6]) was < 20 nM in each case.
`Cc1ncc(-c2ccn3nc(N)nc3c2)cc1C(=O)NCc1cc(F)cc(F)c1OC1CCOC(C)C1` (stereo not shown) [Example 316, 5-(2-amino-[1,2,4]triazolo[1,5-a]pyridin-7-yl)-N-(3,5-difluoro-2-((2-methyltetrahydro-2H-pyran-4-yl)oxy)benzyl)-2-methylnicotinamide]: the IC50 in assay [1] (setting [5]) was 20 to 200 nM; in assay [2] (setting [7]) it was > 200 nM.
On the same counts, the results for `COc1ncc(-c2ccn3nc(N)nc3c2)cc1C(=O)NCc1ccccc1OCC1CCC(C)CC1` (stereo not shown) [Example 10, 5-{2-Amino-[1,2,4]triazolo[1,5-a]pyridin-7-yl}-2-methoxy-N-({2-[(4-methylcyclohexyl)methoxy]phenyl}methyl)pyridine-3-carboxamide] are 20 to 200 nM and > 200 nM.
With `Nc1nc2cc(-c3cnc(Cl)c(C(=O)NCc4ccccc4OC4CCOC4)c3)ccn2n1` (stereo not shown) [Example 165], the IC50 in assay [1] (setting [5]) and in assay [2] (setting [4]) was 20 to 200 nM in each case.
Take `[2H]C([2H])([2H])[C@@H](NC(=O)c1cc(-c2ccn3nc(N)nc3c2)cnc1OC)c1cccc(OC(F)(F)F)c1` [Example 346, (R)-5-(2-amino-[1,2,4]triazolo[1,5-a]pyridin-7-yl)-2-methoxy-N-(1-(3-(trifluoromethoxy)phenyl)ethyl-2,2,2-d3)nicotinamide]: the results for the IC50 in assay [1] (setting [3]) and in assay [2] (setting [4]) were < 20 nM and 20 to 200 nM, respectively.
Regarding `Cc1ncc(-c2ccn3nc(N)nc3c2)cc1C(=O)NCc1cc(F)cc(F)c1OCC(C)C` [Example 301, 5-(2-amino-[1,2,4]triazolo[1,5-a]pyridin-7-yl)-N-(3,5-difluoro-2-isobutoxybenzyl)-2-methylnicotinamide], the IC50 in assay [1] (setting [3]) was < 20 nM; in assay [2] (setting [4]), 20 to 200 nM.
For the compound `COc1ncc(-c2ccn3nc(N)nc3c2)cc1C(=O)NCc1ccccc1Oc1ccccc1` [Example 158, 5-{2-amino-[1,2,4]triazolo[1,5-a]pyridin-7-yl}-2-methoxy-N-[(2-phenoxyphenyl)methyl]pyridine-3-carboxamide], the IC50 in assay [1] (setting [3]) and in assay [2] (setting [6]) was < 20 nM throughout.
On to `[2H]C([2H])([2H])Oc1ncc(-c2ccn3nc(N)nc3c2)cc1C(=O)NCc1cc(OC(F)(F)F)ccc1F` [Example 92, 5-{2-amino-[1,2,4]triazolo[1,5-a]pyridin-7-yl}-N-{[2-fluoro-5-(trifluoromethoxy)phenyl]methyl}-2-(deutero)methoxypyridine-3-carboxamide], for which the IC50 in assay [1] (setting [3]) and in assay [2] (setting [6]) was < 20 nM in each case.
As to `Nc1nc2cc(-c3cnc(Cl)c(C(=O)NCc4cccc(OCC5CC5)c4)c3)ccn2n1` [Example 164], the IC50 in assay [1] (setting [5]) and in assay [2] (setting [4]) was 20 to 200 nM throughout.
For `Cc1ncc(-c2ccn3nc(N)nc3c2)cc1C(=O)NCC[C@@H](O)c1ccc(Cl)cc1` [Example 224], the IC50 in assay [1] (setting [3]) was < 20 nM; in assay [2] (setting [4]), 20 to 200 nM.
The like results for `CCOc1ccccc1CNC(=O)c1cc(-c2ccn3nc(N)nc3c2)cnc1OC` [Example 153, 5-{2-amino-[1,2,4]triazolo[1,5-a]pyridin-7-yl}-N-[(2-ethoxyphenyl)methyl]-2-methoxypyridine-3-carboxamide] were, in that order, < 20 nM and 20 to 200 nM.
As to `Cc1ncc(-c2ccn3nc(N)nc3c2)cc1C(=O)NCc1ccccc1OC(C)C` [Example 35, 5-{2-Amino-[1,2,4]triazolo[1,5-a]pyridin-7-yl}-2-methyl-N-{[2-(propan-2-yloxy)phenyl]methyl}pyridine-3-carboxamide], the IC50 in assay [1] (setting [5]) and in assay [2] (setting [4]) was 20 to 200 nM each time.
On to `Nc1nc2cc(-c3cc(C(=O)Nc4cnn(Cc5ccccc5)c4)c4cc(F)ccc4n3)ccn2n1` [Example 68, 2-{2-Amino-[1,2,4]triazolo[1,5-a]pyridin-7-yl}-N-(1-benzyl-1H-pyrazol-4-yl)-6-fluoroquinoline-4-carboxamide], for which the IC50 in assay [1] (setting [5]) and in assay [2] (setting [4]) was 20 to 200 nM throughout.
As to `COc1ncc(-c2ccn3nc(N)nc3c2)cc1C(=O)NCc1cccc(OC(C)C)c1` [Example 139, 5-{2-amino-[1,2,4]triazolo[1,5-a]pyridin-7-yl}-2-methoxy-N-{[3-(propan-2-yloxy)phenyl]methyl}pyridine-3-carboxamide], the results for the IC50 in assay [1] (setting [3]) and in assay [2] (setting [4]) were < 20 nM and 20 to 200 nM, respectively.
In the case of `[2H]C([2H])([2H])[C@@H](NC(=O)c1cc(-c2ccn3nc(N)nc3c2)cnc1C)c1cc(C(F)(F)F)ccc1F` [Example 303, (R)-5-(2-amino-[1,2,4]triazolo[1,5-a]pyridin-7-yl)-N-(1-(2-fluoro-5-(trifluoromethyl)phenyl)ethyl-2,2,2-H3)-2-methylnicotinamide], the figures for the IC50 in assay [1] (setting [3]) and in assay [2] (setting [4]) were < 20 nM and 20 to 200 nM, respectively.
For `Cc1ncc(C(=O)NCc2cccnc2OCC2CCCC2)cc1-c1ccn2nc(N)nc2c1` [Example 258, 5-{2-amino-[1,2,4]triazolo[1,5-a]pyridin-7-yl}-N-{[2-(cyclopentylmethoxy)pyridin-3-yl]methyl}-6-methylpyridine-3-carboxamide], the IC50 was < 20 nM in assay [1] (setting [3]) and > 200 nM in assay [2] (setting [7]).
Turning to `[2H]C([2H])([2H])Oc1nc(C)c(-c2ccn3nc(N)nc3c2)cc1C(=O)NC(C)c1ccccc1OC(F)(F)F` (single isomer, unassigned) [Example 98-2, 5-{2-amino-[1,2,4]triazolo[1,5-a]pyridin-7-yl}-2-(deutero)methoxy-6-methyl-N-{1-[2-(trifluoromethoxy)phenyl]ethyl}pyridine-3-carboxamide], the IC50 in assay [1] (setting [3]) and in assay [2] (setting [6]) was < 20 nM in each case.
As for `COc1nc(C)c(-c2ccn3nc(N)nc3c2)cc1C(=O)NCc1c(F)cccc1OC1CCCC1` [Example 217, 5-{2-amino-[1,2,4]triazolo[1,5-a]pyridin-7-yl}-N-{[2-(cyclopentyloxy)-6-fluorophenyl]methyl}-2-methoxy-6-methylpyridine-3-carboxamide], the IC50 in assay [1] (setting [3]) was < 20 nM; in assay [2] (setting [4]) it was 20 to 200 nM.
On to `CCOc1ncc(-c2ccn3nc(N)nc3c2)cc1C(=O)NCC[C@H](O)c1ccc(Cl)cc1` [Example 278, 5-{2-amino-[1,2,4]triazolo[1,5-a]pyridin-7-yl}-N-[(3S)-3-(4-chlorophenyl)-3-hydroxypropyl]-2-ethoxypyridine-3-carboxamide], for which the IC50 in assay [1] (setting [5]) was 20 to 200 nM; in assay [2] (setting [7]), > 200 nM.
Regarding `Cc1ncc(C(=O)NCc2c(F)cc(F)cc2OCC2CCCC2)cc1-c1ccn2nc(N)nc2c1` [Example 257, 5-{2-amino-[1,2,4]triazolo[1,5-a]pyridin-7-yl}-N{[2-(cyclopentylmethoxy)-4,6-difluorophenyl]methyl}-6-methylpyridine-3-carboxamide], the IC50 was 20 to 200 nM in assay [1] (setting [5]) and > 200 nM in assay [2] (setting [7]).
